For 20 molecules, IC50 results are on record in patent US9855268B2, “Triazolo[4,5-d]pyrimidine derivatives” (Merck Patent GmbH, priority 2013, dated 2018).

One test has as its target GSK3β(h) (Homo sapiens, UniProt P49841). Briefly: GSK3β radiometric kinase assay (33P-ATP, phospho GS2 peptide). Type of test: biochemical. The conditions noted are these: read-out: IC50 GSK3β (enzyme assay). The protocol: GSK3β(h) is incubated with 8 mM MOPS pH 7,0, 0,2 mM EDTA, 20 μM
[…](p)EDEEE (phosphor GS2 peptide), 10 mM Mg-acetate and [gamma-33P-ATP](specific activity approx. 500 cpm/Pmol, concentration as required). The reaction is initiated by the addition of the MgATP. After incubation for 40 minutes at the room temperature, the Reaction is stopped by the addition of 3% phosphoric acid solution. 10 μL of reaction is then spotted onto a P30 filtermat and washed three times for 5 minutes in 50 mM phosphoric acid and once in methanol prior to drying and scintillation counting.

In test [1] the target is T1, GCN2 (Homo sapiens, UniProt Q9P2K8). Description: Cellular assay of GCN2 activity (phospho-eIF2alpha immunocytochemistry after tryptophanol). Type of test: cell-based. The arrangement: endogenous in cells; host or cells: U2OS. Conditions: Human U2OS cells, 2 h compound, 600 μM tryptophanol 30 min. In short, it runs like this: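 Readout in human U2OS cells: compound pretreatment 2 h, then tryptophanol (600 μM final) for 30 min to trigger GCN2 signalling. Fixed, permeabilised cells quantified by immunocytochemistry for phosphorylation, normalised to DMSO controls as % effect; IC50 from concentration-response.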
Target sequence in this assay (Q9P2K8 whole entry): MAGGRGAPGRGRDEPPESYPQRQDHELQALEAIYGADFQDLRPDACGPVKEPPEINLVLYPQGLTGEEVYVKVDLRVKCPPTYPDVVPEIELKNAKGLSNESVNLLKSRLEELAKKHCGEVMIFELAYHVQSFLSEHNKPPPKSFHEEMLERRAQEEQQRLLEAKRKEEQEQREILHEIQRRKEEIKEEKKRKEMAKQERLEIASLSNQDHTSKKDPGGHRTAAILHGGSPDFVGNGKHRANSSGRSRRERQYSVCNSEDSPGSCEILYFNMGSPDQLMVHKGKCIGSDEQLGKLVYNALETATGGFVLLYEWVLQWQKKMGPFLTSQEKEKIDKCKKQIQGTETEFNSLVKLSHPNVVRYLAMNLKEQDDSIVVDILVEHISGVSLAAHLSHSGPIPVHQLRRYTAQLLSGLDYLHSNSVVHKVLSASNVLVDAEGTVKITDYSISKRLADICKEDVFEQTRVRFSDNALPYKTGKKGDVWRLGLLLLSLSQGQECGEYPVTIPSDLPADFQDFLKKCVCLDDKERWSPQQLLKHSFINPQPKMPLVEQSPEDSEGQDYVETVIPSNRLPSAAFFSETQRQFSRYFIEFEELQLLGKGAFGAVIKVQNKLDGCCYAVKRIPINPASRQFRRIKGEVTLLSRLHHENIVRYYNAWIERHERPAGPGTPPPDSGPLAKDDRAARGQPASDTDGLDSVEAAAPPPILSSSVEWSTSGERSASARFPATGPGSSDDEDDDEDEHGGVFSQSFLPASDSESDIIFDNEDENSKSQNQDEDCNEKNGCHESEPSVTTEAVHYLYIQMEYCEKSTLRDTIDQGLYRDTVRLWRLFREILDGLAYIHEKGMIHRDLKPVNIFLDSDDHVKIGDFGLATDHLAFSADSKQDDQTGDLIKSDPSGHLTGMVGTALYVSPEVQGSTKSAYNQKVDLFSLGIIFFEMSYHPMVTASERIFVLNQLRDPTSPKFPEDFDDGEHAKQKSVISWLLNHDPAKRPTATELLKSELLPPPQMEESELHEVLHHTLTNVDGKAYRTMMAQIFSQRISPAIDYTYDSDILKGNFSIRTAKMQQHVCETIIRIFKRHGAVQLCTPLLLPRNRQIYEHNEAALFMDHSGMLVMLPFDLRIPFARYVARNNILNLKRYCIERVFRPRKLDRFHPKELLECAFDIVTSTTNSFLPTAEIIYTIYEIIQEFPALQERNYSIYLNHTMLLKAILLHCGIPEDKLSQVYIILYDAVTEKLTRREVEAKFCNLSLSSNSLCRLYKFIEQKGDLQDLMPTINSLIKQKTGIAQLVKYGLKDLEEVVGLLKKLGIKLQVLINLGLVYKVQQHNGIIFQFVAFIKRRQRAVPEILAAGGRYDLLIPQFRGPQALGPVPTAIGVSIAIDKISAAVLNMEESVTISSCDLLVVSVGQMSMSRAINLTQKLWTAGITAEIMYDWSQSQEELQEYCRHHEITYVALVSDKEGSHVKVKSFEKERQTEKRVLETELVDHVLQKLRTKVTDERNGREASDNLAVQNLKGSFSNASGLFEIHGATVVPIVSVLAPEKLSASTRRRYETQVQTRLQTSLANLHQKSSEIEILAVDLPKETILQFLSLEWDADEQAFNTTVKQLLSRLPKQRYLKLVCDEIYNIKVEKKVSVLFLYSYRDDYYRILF

In another test the target is GSK3α(h) (Homo sapiens, UniProt P49840). Description: GSK3α radiometric kinase assay (33P-ATP, phospho GS2 peptide). The conditions noted are these: read-out: IC50 GSK3α (enzyme assay). Type of test: biochemical. Summed up: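 Human GSK3α incubated with 20 μM phospho-GS2 peptide in 8 mM MOPS pH 7,0, 10 mM Mg-acetate and [γ-33P]ATP (concentration as required), started with MgATP. After 40 minutes at room temperature, stopped with phosphoric acid; 33P incorporation measured by filtermat spotting and scintillation counting.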

Test [2] deals with T1, GCN2. Briefly: GCN2 enzyme assay (TR-FRET Lanthascreen, GFP-eIF2alpha phosphorylation). Type of test: biochemical. Conditions: 10 μM ATP, 80 nM GFP-eIF2a, 30 nM GCN2. Summed up:
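Kinase reaction with 10 μM ATP and 80 nM GFP-labelled eIF2alpha substrate at room temperature, stopped with EDTA. Phospho-eIF2alpha detected by TR-FRET between antibody and GFP-substrate, excitation at 340 nm.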
Target sequence in this assay (Q9P2K8 whole entry, species assumed): as the sequence (Q9P2K8 whole entry) above
On the technique in general: TR-FRET usually uses a lanthanide donor and a delayed reading to cut background.

Molecules are shown by their SMILES.

Sequence of GSK3α(h) (P49840 whole entry): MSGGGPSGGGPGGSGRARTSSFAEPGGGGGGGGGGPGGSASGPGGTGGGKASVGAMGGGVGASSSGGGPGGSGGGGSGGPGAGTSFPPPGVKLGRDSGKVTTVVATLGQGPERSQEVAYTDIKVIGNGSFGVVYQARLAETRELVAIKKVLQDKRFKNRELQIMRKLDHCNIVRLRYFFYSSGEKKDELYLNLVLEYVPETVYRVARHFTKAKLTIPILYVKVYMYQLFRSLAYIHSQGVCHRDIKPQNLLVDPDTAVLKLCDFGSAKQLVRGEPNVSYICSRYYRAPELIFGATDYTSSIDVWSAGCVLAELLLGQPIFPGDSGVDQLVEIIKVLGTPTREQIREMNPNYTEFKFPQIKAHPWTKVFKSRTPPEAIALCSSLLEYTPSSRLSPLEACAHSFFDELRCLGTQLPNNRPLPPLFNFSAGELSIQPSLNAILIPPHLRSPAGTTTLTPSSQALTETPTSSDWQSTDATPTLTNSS
Sequence of GSK3β(h) (P49841 whole entry): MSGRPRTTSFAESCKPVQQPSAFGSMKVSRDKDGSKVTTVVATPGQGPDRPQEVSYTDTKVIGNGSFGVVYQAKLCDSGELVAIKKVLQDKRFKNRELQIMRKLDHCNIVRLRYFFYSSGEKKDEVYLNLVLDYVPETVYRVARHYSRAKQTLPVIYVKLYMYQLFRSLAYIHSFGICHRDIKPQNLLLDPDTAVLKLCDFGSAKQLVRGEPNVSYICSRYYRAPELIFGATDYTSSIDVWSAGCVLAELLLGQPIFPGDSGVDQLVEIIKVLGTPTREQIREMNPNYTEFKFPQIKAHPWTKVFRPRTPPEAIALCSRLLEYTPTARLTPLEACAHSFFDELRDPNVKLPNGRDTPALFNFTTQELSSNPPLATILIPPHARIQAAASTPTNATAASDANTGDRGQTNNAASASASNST

As to `Cc1ccc2cc(-n3nnc4cnc(N[C@@H]5CCC[C@@H](C(N)=O)C5)nc43)ccc2n1` (relative stereo) [A192, (trans)-3-[3-(2-methyl-quinolin-6-yl)-3H-[1,2,3]triazolo[4,5-d]pyrimidin-5-ylamino]-cyclohexanecarboxylic acid amide], the IC50 on GSK3β(h) is below 1 µM; at GCN2 [1] it was 5 to 10 µM; at GSK3α(h), below 1 µM; at GCN2 [2] it was below 1 µM.
`CCOc1ccc(-n2nnc3cnc(N[C@@H]4CC[C@@H](O)C4)nc32)cc1` (relative stereo) [A207, (trans)-3-[3-(4-ethoxy-phenyl)-3H-[1,2,3]triazolo[4,5-d]pyrimidin-5-ylamino]-cyclopentanol]: the IC50 on GSK3β(h) is below 1 µM; on GCN2 [1], 1 to 5 µM; on GSK3α(h), below 1 µM; against GCN2 [2], below 1 µM.
For the molecule `CC(C)Oc1ccc(-n2nnc3cnc(N[C@@H]4CC[C@@H](O)C4)nc32)cc1` (relative stereo) [A210, (trans)-3-[3-(4-isopropoxy-phenyl)-3H-[1,2,3]triazolo[4,5-d]pyrimidin-5-ylamino]-cyclopentanol], the IC50 on GSK3β(h) was below 1 µM; on GCN2 [1], 5 to 10 µM; at GSK3α(h), below 1 µM; against GCN2 [2], below 1 µM.
Consider `Cn1cc(-c2ccc(-n3nnc4cnc(N[C@@H]5CC[C@H](N)C5)nc43)cc2)cn1` [A118, (1S,3R)-N3-{3-[4-(1-methyl-1H-pyrazol-4-yl)-phenyl]-3H-[1,2,3]triazolo[4,5-d]pyrimidin-5-yl}-cyclopentane-1,3-diamine], for which the IC50 at GSK3β(h) was below 1 µM; on GCN2 [1], 1 to 5 µM; on GSK3α(h) it was below 1 µM; against GCN2 [2] it was below 1 µM.
For the molecule `COCCn1cc(-c2ccc(-n3nnc4cnc(N[C@@H]5CC[C@H](N)C5)nc43)cc2)cn1` [A121, (1S,3R)—N3-(3-{4-[1-(2-methoxy-ethyl)-1H-pyrazol-4-yl]-phenyl}-3H-[1,2,3]triazolo[4,5-d]pyrimidin-5-yl)-cyclopentane-1,3-diamine], the IC50 is 1 to 5 µM on GSK3β(h), 1 to 5 µM against GCN2 [1], below 1 µM at GSK3α(h) and below 1 µM against GCN2 [2].
As to `COc1ccc(-n2nnc3cnc(N[C@@H]4CC[C@H](CN)C4)nc32)cc1` [A122, ((1R,3S)-3-aminomethyl-cyclopentyl)-[3-(4-methoxy-phenyl)-3H-[1,2,3]triazolo[4,5-d]pyrimidin-5-yl]-amine], the IC50 on GSK3β(h) is 1 to 5 µM; against GCN2 [1] it was 1 to 5 µM; at GSK3α(h), below 1 µM; at GCN2 [2], below 1 µM.
As for `Cc1ccc2cc(-n3nnc4cnc(N[C@@H]5CC[C@@H](N)C5)nc43)ccc2n1` [A124, (1R,3R)—N-[3-(2-methyl-quinolin-6-yl)-3H-[1,2,3]triazolo[4,5-d]pyrimidin-5-yl]-cyclopentane-1,3-diamine], the half-maximal inhibitory concentration (IC50) is 1 to 5 µM on GSK3β(h), 1 to 5 µM against GCN2 [1], below 1 µM at GSK3α(h) and below 1 µM against GCN2 [2].
Turning to `CCOCCn1cc(-c2ccc(-n3nnc4cnc(N[C@@H]5CC[C@@H](N)C5)nc43)cc2)cn1` [A125, (1R,3R)—N-(3-{4-[1-(2-3thoxy-ethyl)-1H-pyrazol-4-yl]-phenyl}-3H-[1,2,3]triazolo[4,5-d]pyrimidin-5-yl)-cyclopentane-1,3-diamine], the IC50 at GSK3β(h) was 1 to 5 µM; against GCN2 [1], below 1 µM; on GSK3α(h), below 1 µM; against GCN2 [2] it was below 1 µM.
As for `COCCOc1ccc(-n2nnc3cnc(N[C@@H]4CC[C@@H](C(N)=O)C4)nc32)cc1` [A135, (1R,3R)-3-{3-[4-(2-methoxy-ethoxy)-phenyl]-3H-[1,2,3]triazolo[4,5-d]pyrimidin-5-ylamino}-cyclopentanecarboxylic acid amide], the IC50 is below 1 µM on GSK3β(h), 1 to 5 µM at GCN2 [1], below 1 µM on GSK3α(h) and below 1 µM against GCN2 [2].
For the molecule `Cc1nc2ccc(-n3nnc4cnc(N[C@@H]5CC[C@@H](C(N)=O)C5)nc43)cc2s1` [A147, (1R,3R)-3-[3-(2-methyl-benzothiazol-6-yl)-3H-[1,2,3]triazolo[4,5-d]pyrimidin-5-ylamino]-cyclopentanecarboxylic acid amide], the IC50 at GSK3β(h) is below 1 µM; against GCN2 [1] it was 1 to 5 µM; at GSK3α(h), below 1 µM; against GCN2 [2], below 1 µM.
As for `CCOc1ccc(-n2nnc3cnc(N[C@@H]4CC[C@@H](C(N)=O)C4)nc32)cc1` [A150, (1R,3R)-3-[3-(4-ethoxy-phenyl)-3H-[1,2,3]triazolo[4,5-d]pyrimidin-5-ylamino]-cyclopentanecarboxylic acid amide], the IC50 is below 1 µM at GSK3β(h), 1 to 5 µM on GCN2 [1], below 1 µM at GSK3α(h) and below 1 µM against GCN2 [2].
`NC(=O)[C@@H]1CC[C@@H](Nc2ncc3nnn(-c4ccc(OC[C@H](O)C(F)(F)F)cc4)c3n2)C1` [A151, (1R,3R)-3-{3-[4-((S)-3,3,3-trifluoro-2-hydroxy-propoxy)-phenyl]-3H-[1,2,3]triazolo[4,5-d]pyrimidin-5-ylamino}-cyclopentanecarboxylic acid amide]: the IC50 was below 1 µM at GSK3β(h), 1 to 5 µM on GCN2 [1], below 1 µM at GSK3α(h) and below 1 µM against GCN2 [2].
In the case of `COc1ccc(-n2nnc3cnc(N[C@@H]4CC[C@@H](C(N)=O)C4)nc32)cc1F` [A152, (1R,3R)-3-[3-(3-fluoro-4-methoxy-phenyl)-3H-[1,2,3]triazolo[4,5-d]pyrimidin-5-ylamino]-cyclopentanecarboxylic acid amide], the half-inhibitory concentration (IC50) was below 1 µM at GSK3β(h), 1 to 5 µM on GCN2 [1], below 1 µM on GSK3α(h) and below 1 µM against GCN2 [2].
Consider `NC(=O)[C@@H]1CC[C@@H](Nc2ncc3nnn(-c4ccc(OCCO)cc4)c3n2)C1` [A153, (1R,3R)-3-{3-[4-(2-hydroxy-ethoxy)-phenyl]-3H-[1,2,3]triazolo[4,5-d]pyrimidin-5-ylamino}-cyclopentanecarboxylic acid amide], for which the IC50 is below 1 µM on GSK3β(h), 5 to 10 µM against GCN2 [1], below 1 µM on GSK3α(h) and below 1 µM against GCN2 [2].
In the case of `NC(=O)[C@@H]1CC[C@@H](Nc2ncc3nnn(-c4ccc(OC[C@@H](O)C(F)(F)F)cc4)c3n2)C1` [A155, (1R,3R)-3-{3-[4-((R)-3,3,3-trifluoro-2-hydroxy-propoxy)-phenyl]-3H-[1,2,3]triazolo[4,5-d]pyrimidin-5-ylamino}-cyclopentanecarboxylic acid amide], the IC50 was below 1 µM on GSK3β(h), 1 to 5 µM at GCN2 [1], below 1 µM on GSK3α(h) and below 1 µM against GCN2 [2].
Take `CCOc1ccc(-n2nnc3cnc(N[C@@H]4CC[C@@H](C(N)=O)C4)nc32)cc1F` [A157, (1R,3R)-3-[3-(4-ethoxy-3-fluoro-phenyl)-3H-[1,2,3]triazolo[4,5-d]pyrimidin-5-ylamino]-cyclopentanecarboxylic acid amide]: the IC50 on GSK3β(h) is below 1 µM; against GCN2 [1], 1 to 5 µM; at GSK3α(h), below 1 µM; against GCN2 [2], below 1 µM.
In the case of `CCOc1ccc(-n2nnc3cnc(N[C@@H]4CC[C@@H](c5nnc(N)o5)C4)nc32)cc1` [A283, [(1R,3R)-3-(5-amino-[1,3,4]oxadiazol-2-yl)-cyclopentyl]-[3-(4-ethoxy-phenyl)-3H-[1,2,3]triazolo[4,5-d]pyrimidin-5-yl]-amine], the IC50 at GSK3β(h) is 1 to 5 µM; at GSK3α(h), below 1 µM; against GCN2 [2] it was below 1 µM.
For the molecule `COc1ccc(-n2nnc3cnc(N[C@@H]4CCN(C(N)=O)C4)nc32)cc1` [A285, (R)-3-[3-(4-Methoxy-phenyl)-3H-[1,2,3]triazolo[4,5-d]pyrimidin-5-ylamino]-pyrrolidine-1-carboxylic acid amide], the IC50 at GSK3β(h) was 1 to 5 µM; at GSK3α(h), below 1 µM; against GCN2 [2], below 1 µM.
Regarding `CCOc1ccc(-n2nnc3cnc(N[C@@H]4CC[C@@H](C(=O)NS(C)(=O)=O)C4)nc32)cc1` [A286, N-{(1R,3R)-3-[3-(4-ethoxy-phenyl)-3H-[1,2,3]triazolo[4,5-d]-pyrimidin-5-ylamino]-cyclopentanecarbonyl}-methanesulfonamide], the IC50 on GSK3β(h), on GSK3α(h) and at GCN2 [2] was below 1 µM throughout.
For `CC(C)(O)c1ccc(-n2nnc3cnc(N[C@@H]4CC[C@@H](C(N)=O)C4)nc32)cc1` [A289, (1R,3R)-3-{3-[4-(1-hydroxy-1-methyl-ethyl)-phenyl]-3H-[1,2,3]triazolo[4,5-d]pyrimidin-5-ylamino}-cyclopentanecarboxylic acid amide], the IC50 on GSK3β(h), at GSK3α(h) and against GCN2 [2] was below 1 µM in each case.

One may read the IC50 as the concentration that gives 50% inhibition.
